Measurements taken from patent US9115166B2, “Rebaudioside A derivative products and methods for making” (The Coca-Cola Company, priority 2008, dated 2015).
Marks after values point to notes of the source that are not given here.

Experiments:
[1] = Sweetness potency of derivative products compared to sucrose at iso-sweetness levels (Example 1); settings: in vivo
Source text: These rebaudioside A derivative products were characterized as having an intense sweetening potency. […] Thus, the rebaudioside A derivative products are suitable for use as sweeteners for sweetenable compositions.

[2] = Sweetness intensity of a water sample of derivative product compared with a water sample of sucrose (Example 4); format: in vivo; settings: for Sweetness Intensity of Derivative Product (as compared to equivalent amount of sucrose): in water, amount of sample by weight: 1 (II) 3.6 %, 2 (IV) 1.1 %, 3 (III) 9.7 %, 4 (V) 6 %
Protocol: The sweetness intensity of the foregoing rebaudioside A derivative products was analyzed by comparing the sweetness intensity of a water sample having a particular amount of sucrose with a second water sample having an identical amount of a rebaudioside A derivative product.

[3] = Quality of sweetness: sensory attributes scored on a 15-point unstructured line scale; format: in vivo; parameters: key to Stale Flavor / Metallic Flavor / Mouth Numbing / Mouthburn / Stale Aftertaste / Metallic Aftertaste / Overall Aroma / Sweet Aromatic Aroma / Stale Aroma: scores on a 15-point unstructured line scale; settings: for Metallic Aftertaste / Metallic Flavor / Mouth Numbing / Mouthburn / Stale Flavor / Overall Aroma / Stale Aftertaste / Stale Aroma / Sweet Aromatic Aroma / Astringency / Bitterness / Bitterness Aftertaste / Black Licorice Aftertaste / Black Licorice Flavor / Cooling / Overall Aftertaste / Overall Flavor / Sweet Aromatic Aftertaste / Sweet Aromatic Flavor / Sweetness / Sweetness Aftertaste: mean score, 15-point line scale, two replications, room temperature; for Overall Aroma / Stale Aftertaste / Stale Aroma / Sweet Aromatic Aroma: more than 50% of responses zero; for Astringency / Bitterness / Bitterness Aftertaste / Black Licorice Aftertaste / Black Licorice Flavor / Cooling / Overall Aftertaste / Overall Flavor / Sweet Aromatic Aftertaste / Sweet Aromatic Flavor / Sweetness / Sweetness Aftertaste: same superscript letter = not significantly different (95%); for characteristics which were not significantly different from sucrose (number): Fisher's LSD 5%, 95% confidence level
Protocol: The quality of sweetness of the rebaudioside A derivative products 1 (II), 2 (IV), 3 (III), and 4 (V) also was evaluated and compared to that of rebaudioside A, rebaudioside B, rebaudioside F, and sucrose at room temperature. For each attribute, the sweeteners received a score based on a 15-point unstructured line scale. […] A multiple comparison test, Fisher's LSD 5%, aided in the comparative analysis of the scores.

Row | SMILES | Metallic Aftertaste [3] | Metallic Flavor [3] | Mouth Numbing [3] | Mouthburn [3] | Stale Flavor [3] | Overall Aroma [3] | Stale Aftertaste [3] | Stale Aroma [3] | Sweet Aromatic Aroma [3] | Astringency [3] | Bitterness [3] | Bitterness Aftertaste [3] | Black Licorice Aftertaste [3] | Black Licorice Flavor [3] | Cooling [3] | Overall Aftertaste [3] | Overall Flavor [3] | Sweet Aromatic Aftertaste [3] | Sweet Aromatic Flavor [3] | Sweetness [3] | further results
1 | CC1(C(=O)O)CCCC2(C)C3CCC4(OC5OC(CO)C(O)C(OC6OC(CO)C(O)C(O)C6O)C5OC5OC(CO)C(O)C(O)C5O)CC3(CCC12)CC4(C)O [Derivative Product 3 (III), 13-[(2-O-β-D-glucopyranosyl-3-O-β-D-glucopyranosyl-β-D-glucopyranosyl)oxy]-16-hydroxy kauran-18-oic acid] | 0.83 | 1.02 | 1.09 | 1.15 | 0.63 | 0.09 | 0.41 | 0.00 | 0.08 | 3.27^a | 2.90^ab | 1.75^abc | 1.37^a | 1.84^ab | 0.57^b | 5.72^ab | 10.02^a | 0.68^abc | 0.77^ab | 9.73^a | taste quality [1]: sweet clean taste similar to sugar; Sweetness Intensity of Derivative Product (as compared to equivalent amount of sucrose) [2]: 190; Sweetness Aftertaste [3]: 5.38^ab
2 | CC1=CC23CCC4C(C)(C(=O)OC5OC(CO)C(O)C(O)C5O)CCCC4(C)C2CCC1(OC1OC(CO)C(O)C(OC2OC(CO)C(O)C(O)C2O)C1OC1OC(CO)C(O)C(O)C1O)C3 [Derivative Product 2 (IV), 13-[(2-O-β-D-glucopyranosyl-3-O-β-D-glucopyranosyl-β-D-glucopyranosyl)oxy]kaur-15-en-18-oic acid β-D-glucopyranosyl ester] | 0.88 | 0.82 | 0.97 | 1.45 | 1.21 | 0.09 | 0.74 | 0.06 | 0.00 | 2.90^ab | 2.86^ab | 1.82^ab | 0.00^c | 0.07^d | 0.12^c | 2.35^d | 3.58^c | 0.20^cd | 0.19^bc | 1.14^d | Sweetness Intensity of Derivative Product (as compared to equivalent amount of sucrose) [2]: 20; characteristics which were not significantly different from sucrose (number) [3]: 8; overall flavor and sweetness relative to sucrose ([3]; in vivo): comparable to sucrose; Sweetness Aftertaste [3]: 0.41^d
3 | CC1=CC23CCC4C(C)(C(=O)O)CCCC4(C)C2CCC1(OC1OC(CO)C(O)C(OC2OC(CO)C(O)C(O)C2O)C1OC1OC(CO)C(O)C(O)C1O)C3 [Derivative Product 4 (V), 13-[(2-O-β-D-glucopyranosyl-3-O-β-D-glucopyranosyl-β-D-glucopyranosyl)oxy]kaur-15-en-18-oic acid] | 0.63 | 0.87 | 0.90 | 1.23 | 0.77 | 0.19 | 0.47 | 0.09 | 0.00 | 3.01^ab | 2.08^cde | 1.38^bcd | 1.25^a | 1.40^bc | 0.70^ab | 5.24^b | 6.44^b | 0.83^ab | 0.75^ab | 6.04^b | taste quality [1]: sweet clean taste similar to sugar; Sweetness Intensity of Derivative Product (as compared to equivalent amount of sucrose) [2]: 120; characteristics which were not significantly different from sucrose (number) [3]: 8; Sweetness Aftertaste [3]: 4.85^b
4 | OC[C@H]1O[C@@](CO)(O[C@H]2O[C@H](CO)[C@@H](O)[C@H](O)[C@H]2O)[C@@H](O)[C@@H]1O [Sucrose, sucrose, reference compound] | 0.67 | 1.04 | 0.57 | 1.06 | 0.50 | 0.40 | 0.58 | 0.11 | 0.24 | 3.03^ab | 1.47^e | 0.97^d | 0.26^c | 0.13^d | 0.38^bc | 5.05^b | 10.73^a | 1.01^a | 1.12^a | 10.45^a | Sweetness Aftertaste [3]: 4.76^b
5 | CC1(C(=O)OC2OC(CO)C(O)C(O)C2O)CCCC2(C)C3CCC4(OC5OC(CO)C(O)C(OC6OC(CO)C(O)C(O)C6O)C5OC5OC(CO)C(O)C(O)C5O)CC3(CCC12)CC4(C)O [Derivative Product 1 (II), 13-[(2-O-β-D-glucopyranosyl-3-O-β-D-glucopyranosyl-β-D-glucopyranosyl)oxy]-16-hydroxy kauran-18-oic acid β-D-glucopyranosyl ester] | 0.67 | 0.71 | 0.38 | 1.11 | 1.01 | 0.17 | 0.56 | 0.10 | 0.04 | 2.38^c | 2.28^bcd | 1.32^cd | 0.00^c | 0.00^d | 0.29^bc | 2.18^d | 3.14^c | 0.09^d | 0.06^c | 1.54^d | Sweetness Intensity of Derivative Product (as compared to equivalent amount of sucrose) [2]: 30; sweetness intensity, times that of sucrose ([2]; water solution vs same weight percentage of sucrose, 3.6 weight percent for 1 (II)): at least 30 times; Sweetness Aftertaste [3]: 0.70^d
